# Measurements as given in publication PMC3422668 (Journal of immunology (Baltimore, Md. : 1950), 2012).
# Entries after “also recorded” stand apart in the source; their conditions may differ.
# T1: H-2L^d octamer peptide EPQAPWME, residues 46-53 (mouse)
# T1 chain: EPQAPWME
# T2: H-2L^d heptamer peptide EPQAPWM (residues 46 to 52) (Mus musculus, H-2Ld)
# T2 chain: EPQAPWM
# T3: H-2L^d 6-mer peptide EPQAPW (Mus musculus, H-2Ld)
# T3 chain: EPQAPW
# Legend:
# mAb 64-3-7 = assay type: binding, murine; settings: SPR, BIAcore T100; graded peptide concentrations 11, 33 and 100 μM; Figure 1B
# mAb 64-3-7 Fab = assay: SPR direct binding of soluble 64-3-7 Fab to peptide coupled to a CM5 chip; set-up: species or system murine; settings: similarly coupled peptide surface, data not shown
# [1] = molecular target: T1, H-2L^d octamer peptide EPQAPWME, …; assay: crystal structure
# [2] = molecular target: T2, H-2L^d heptamer peptide EPQAPWM …; assay: SPR
# [3] = molecular target: T3, H-2L^d 6-mer peptide EPQAPW; assay: SPR
molecule,measurement,setting,value
EPQAPW,competition for antibody binding to pL^d35-55-coupled surface,mAb 64-3-7,intermediate activity
EPQAPWM,competition for antibody binding to pL^d35-55-coupled surface,mAb 64-3-7,compete effectively
PQAPWM,competition for antibody binding to pL^d35-55-coupled surface,mAb 64-3-7,intermediate activity; also recorded: only binds weakly
QAPWM,competition for antibody binding to pL^d35-55-coupled surface,mAb 64-3-7,fails to block
RFDSDAENPRYEPRARWMEQE [pK^b35-55],direct binding of 64-3-7 Fab to peptide-coupled biosensor surface,mAb 64-3-7 Fab,no detectable binding
"SNVREIKNRWRSTVQKLK [control peptide, reference compound]",direct binding of 64-3-7 Fab to peptide-coupled biosensor surface,mAb 64-3-7 Fab,no detectable binding
"Fab fragment of mAb 64-3-7 (Fab, V domains shown) VH: EVKLVESEGGLVQPGSSMKLSCTASGFTFSDYYMAWVRQVPEKGLEWVANINYDGSSTYYLDSLKGRFIISRDIAKNILYLQMSSLRCEDTATYYCARLTNGYLDVWGAGTTVTVSS VL: DVVMTQTPLSLPVSLGDQASISCRSSQSLVHSNGNTYLHWYLQKPGQSPNLLIYKVSNRFSGVPDRFSGSGSGTDFTLKISRVEAEDLGVYFCSQSTHVPTFGGGTKLEIK",binding result,[1],binds
"mAb 64-3-7 (antibody, V domains shown) VH: EVKLVESEGGLVQPGSSMKLSCTASGFTFSDYYMAWVRQVPEKGLEWVANINYDGSSTYYLDSLKGRFIISRDIAKNILYLQMSSLRCEDTATYYCARLTNGYLDVWGAGTTVTVSS VL: DVVMTQTPLSLPVSLGDQASISCRSSQSLVHSNGNTYLHWYLQKPGQSPNLLIYKVSNRFSGVPDRFSGSGSGTDFTLKISRVEAEDLGVYFCSQSTHVPTFGGGTKLEIK",binding result,[2],binds
same,binding result,[3],binds
